Laboratory results: US11447486B2, “2-amino-benzimidazole derivatives and their use as 5-lipoxygenase and/or prostaglandin E synthase inhibitors” (INSTITUT PASTEUR KOREA, priority 2014, dated 2022)

Key:
[1] = test system: Rat basophilic leukemia (RBL) cells; experiment: LTB4 secretion assay in RBL (rat basophilic leukemia cells); format: cell-based; settings: Rattus norvegicus, RBL
Procedure, shortened: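 LTB4 released into supernatant was measured by EIA after 10 min at 37 °C with arachidonic acid (2.5 uM final) and calcium ionophore A23187 (5 uM final). Before stimulation, cells plated 2×10^4/well overnight received compound doses (5 nM to 100 uM) for 15 min in 0.5% FBS medium.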

human 5-LOX = target: T1, human 5-LOX (Homo sapiens, UniProt P09917); experiment: 5-LOX enzyme activity, fluorescence method (5-HPETE, H2DCFDA); format: biochemical; settings: read-out: 5-LO (IC50)
T1 construct: purchased Cayman 60402; host or cells: insect cells (lysate)
T1 sequence (P09917 1-674): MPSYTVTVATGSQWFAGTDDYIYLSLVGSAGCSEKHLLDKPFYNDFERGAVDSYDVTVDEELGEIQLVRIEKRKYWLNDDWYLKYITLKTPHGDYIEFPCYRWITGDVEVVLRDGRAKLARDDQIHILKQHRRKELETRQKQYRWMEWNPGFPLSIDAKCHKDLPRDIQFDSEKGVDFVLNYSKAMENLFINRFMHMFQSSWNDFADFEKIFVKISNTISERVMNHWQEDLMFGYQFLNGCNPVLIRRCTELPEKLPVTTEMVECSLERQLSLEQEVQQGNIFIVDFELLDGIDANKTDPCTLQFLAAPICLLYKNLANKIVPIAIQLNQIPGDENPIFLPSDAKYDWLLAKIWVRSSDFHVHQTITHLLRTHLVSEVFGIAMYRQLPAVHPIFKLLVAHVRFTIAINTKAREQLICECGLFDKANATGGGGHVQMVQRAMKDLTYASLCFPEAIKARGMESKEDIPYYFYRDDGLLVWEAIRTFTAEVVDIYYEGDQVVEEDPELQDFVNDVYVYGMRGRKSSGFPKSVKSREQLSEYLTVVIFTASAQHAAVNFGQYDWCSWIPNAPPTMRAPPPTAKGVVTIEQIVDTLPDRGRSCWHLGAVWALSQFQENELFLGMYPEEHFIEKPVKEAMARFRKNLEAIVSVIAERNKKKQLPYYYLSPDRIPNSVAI
Procedure, shortened: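 Fluorescence-based read-out, run entirely at room temperature. Enzyme mixture was exposed to a dose range of compound from 0.5 nM to 10 uM for 5 min before ATP and arachidonic acid were added to final levels of 100 uM and 3 uM.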

Rat whole blood (RWB) = experiment: LTB4 secretion assay in RWB (rat whole blood); format: cell-based; settings: Rattus norvegicus
Protocol: Rat blood was drawn from caudal vena cava from male Sprague Dawley rat (6-9 weeks old) in vacuette coated with sodium heparin (Greiner bio-one, Cat #455051). The blood was pooled and diluted with RPMI (WelGENE, Cat #LM 011-05) to 1:1. The diluted blood was aliquoted into 96 well plate (200 ul per well) and compounds were added in dose response to a desired concentration ranging from 2.5 nM to 50 uM. After 15 min of pre-incubation at 37° C., calcium ionophore (A23187) was added to the final concentration of 10 uM. After 10 min of further incubation at 37° C., the LTB4 production was stopped by diluting the reaction mixture with ice cold PBS (1:4 dilutions). Cells were removed by centrifugation at 1000×g, 4° C. for 10 min, and the supernatant was transferred and then the quantification of LTB4 was done with Leukotriene B4 EIA kit (Cayman, Cat #520111) as instructed.

| Structure (SMILES) | EC50 [1] [µM] | IC50 (human 5-LOX) [nM] | EC50 (Rat whole blood (RWB)) [µM] |
| --- | --- | --- | --- |
| Cc1cc(Nc2ccc3nc(NCc4ccc(N(C)c5ncc(Cl)cn5)cc4)n(C)c3c2)n[nH]1 [Compound 471] | < 10 | < 1000 | < 10 |
| CN(C)c1nc2cc(NCc3ccc(-c4ccnn4C)cc3)ccc2[nH]1 [Compound 196] | < 10 | < 1000 | 10 to 20 |
| Nc1ccc2[nH]c(NCc3ccc(Oc4ccc(Cl)c(Cl)c4)cc3)nc2c1 [Compound 112] | < 10 | < 1000 | 10 to 20 |
| Cn1c(NCc2ccc(Oc3ncc(Cl)cn3)cc2)nc2ccc(Nc3cc(C(F)(F)F)[nH]n3)cc21 [Compound 475] | < 10 | < 1000 | < 10 |
| CN(C)c1ccc2nc(NCc3ccc(Oc4ccc(Cl)cn4)cc3)n(C)c2c1 [Compound 253] | < 10 | < 1000 | < 10 |
| CCC(Nc1nc2ccc(Nc3cc(C(F)F)[nH]n3)cc2n1C)c1ccc(Oc2ncc(Cl)cn2)cc1 (stereo not drawn) [Compound 535] | < 10 | < 1000 | < 10 |
| CCn1c(NCc2ccc(Oc3cnc(Cl)cn3)cc2)nc2ccc(Nc3cc(C(C)(C)C)[nH]n3)cc21 [Compound 514] | < 10 | < 1000 | < 10 |
| Cn1c(NCc2ccc(Oc3ccc(C#N)cn3)cc2)nc2ccc(N)cc21 [Compound 350] | < 10 | < 1000 | < 10 |
| CCn1c(NCc2ccc(Oc3ncc(Cl)cn3)cc2)nc2ccc(Nc3cc(C(F)(F)F)n(C)n3)cc21 [Compound 504] | < 10 | 1000 to 10000 | < 10 |
| CC(C)(O)Cn1c(NCc2ccc(Oc3ccc(Cl)cn3)cc2)nc2ccc(N)cc21 [Compound 203] | < 10 | < 1000 | > 20 |
| Cn1c(NCCOc2ccc(OC(F)(F)F)cc2Cl)nc2cc(N)ccc21 [Compound 57] | < 10 | < 1000 | > 20 |
| Cn1c(NCc2ccc(Oc3nccc(C(F)(F)F)n3)cc2)nc2ccc(NC3COC3)cc21 [Compound 364] | > 20 | < 1000 | > 20 |
| c1ccc(Oc2ccc(CNc3nc4cc(NC5COC5)ccc4[nH]3)cc2)cc1 [Compound 87] | < 10 | < 1000 | < 10 |
| Cn1c(NCc2ccc(Oc3ncc(Cl)cn3)cc2)nc2ccc(Nc3nc(C(F)(F)F)co3)cc21 [Compound 493] | < 10 | 1000 to 10000 | < 10 |
| CC(Nc1nc2cc(N)ccc2[nH]1)c1ccc(Cl)cc1Cl (stereo not drawn) [Compound 74] | < 10 | < 1000 | 10 to 20 |
| Nc1ccc2[nH]c(NCCc3ccc(F)cc3)nc2c1 [Compound 32] | < 10 | < 1000 | < 10 |

| Structure (SMILES) | EC50 [1] [µM] | IC50 (human 5-LOX) [nM] | EC50 (Rat whole blood (RWB)) [µM] |
| --- | --- | --- | --- |
| Cn1c(NCc2ccc(Oc3ncc(Cl)cn3)cc2)nc2ccc(NC3COC3)cc21 [Compound 289] | < 10 | < 1000 | < 10 |
| Fc1ccc(CNc2nc3ccc(N4CCC(Oc5ccc(OC(F)(F)F)cc5)C4)cc3[nH]2)cc1 (stereo not drawn) [Compound 77] | 10 to 20 | < 1000 | < 10 |
| Cn1nc(Nc2ccc3nc(NCc4ccc(Oc5ncc(Cl)cn5)cc4)n(C)c3c2)cc1C(F)F [Compound 532] | < 10 | < 1000 | < 10 |
| Nc1ccc2[nH]c(NCc3ccc(-c4ccc(Cl)cn4)cc3)nc2c1 [Compound 164] | < 10 | < 1000 | > 20 |
| Cn1c(NCCOc2ccc(OC(F)(F)F)cc2)nc2ccc(N)cc21 [Compound 52] | < 10 | < 1000 | < 10 |
| Cn1c(NCc2ccc(Oc3ccncn3)cc2)nc2ccc(NC3COC3)cc21 [Compound 371] | 10 to 20 | < 1000 | 10 to 20 |
| CCC(Nc1ccc2[nH]c(N(C)C)nc2c1)c1ccc(Oc2ccc(OC(F)(F)F)cc2)cc1 (stereo not drawn) [Compound 132] | < 10 | < 1000 | > 20 |
| Nc1ccc2nc(NCCOc3ccc(OC(F)(F)F)cc3)[nH]c2c1 [Compound 62] | < 10 | < 1000 | < 10 |
| CCn1c(NCc2ccc(Oc3ncc(Cl)cn3)cc2)nc2ccc(Nc3cc(C(C)(C)C)[nH]n3)cc21 [Compound 509] | < 10 | < 1000 | < 10 |
| Cc1cc(Nc2ccc3nc(NCc4ccc(Oc5ncc(Cl)cn5)cc4)n(CCC(F)(F)F)c3c2)n[nH]1 [Compound 491] | < 10 | < 1000 | < 10 |
| Cn1c(NCc2ccc(Oc3ncc(C#N)cn3)cc2)nc2ccc(N)cc21 [Compound 367] | < 10 | < 1000 | < 10 |
| CC(Nc1ccc2nc(N(C)C)[nH]c2c1)c1ccc(Oc2ccc(OC(F)(F)F)cc2)nc1 (stereo not drawn) [Compound 150] | < 10 | < 1000 | > 20 |
| Cn1c(NCc2ccc(Oc3ncc(Cl)cn3)cc2)nc2ccc(Nc3nc(C(F)(F)F)cs3)cc21 [Compound 494] | < 10 | 1000 to 10000 | < 10 |
| Cn1c(NCc2ccc(Oc3ncc(Cl)cn3)cc2)nc2ccc(Nc3cc[nH]n3)cc21 [Compound 450] | < 10 | < 1000 | < 10 |
| Clc1ccc(Oc2ccc(CNc3nc4cc(NC5COC5)ccc4[nH]3)cc2)nc1 [Compound 166] | < 10 | < 1000 | < 10 |

Other lines, results leading:

| EC50 [1] [µM] | IC50 (human 5-LOX) [nM] | EC50 (Rat whole blood (RWB)) [µM] | Structure (SMILES) |
| --- | --- | --- | --- |
| < 10 | < 1000 | < 10 | Cc1cc(Nc2cc(F)c3nc(NCc4ccc(Oc5ncc(Cl)cn5)cc4)n(C)c3c2)n[nH]1 [Compound 499] |
| < 10 | < 1000 | > 20 | CN(C)c1nc2ccc(NCc3ccc(C4(C#N)CCOCC4)cc3)cc2[nH]1 [Compound 241] |
| < 10 | < 1000 | < 10 | Cn1c(NCc2ccc(Oc3ncc(OC(F)(F)F)cn3)cc2)nc2ccc(NC3COC3)cc21 [Compound 412] |
| < 10 | < 1000 | < 10 | CCC(Nc1nc2ccc(NC3COC3)cc2n1C)c1ccc(Oc2ccc(C(F)(F)F)cn2)cc1F (stereo not drawn) [Compound 550] |
| < 10 | < 1000 | > 20 | Cn1c(NCCOc2ccc(OC(F)(F)F)c(Cl)c2)nc2ccc(N)cc21 [Compound 58] |
| < 10 | < 1000 | > 20 | CC(C)(C)Nc1nc2ccc(N)cc2n1CC(=O)Nc1ccc(OC(F)(F)F)cc1 [Compound 67] |
| < 10 | < 1000 | < 10 | CCC(Nc1nc2ccc(Nc3cc(C)[nH]n3)cc2n1C)c1ccc(Oc2ncc(C(F)(F)F)cn2)cc1F (stereo not drawn) [Compound 541] |
| < 10 | < 1000 | < 10 | Cn1c(NCc2ccc(Oc3cnc(Cl)cn3)cc2)nc2ccc(NC3COC3)cc21 [Compound 296] |
| < 10 | < 1000 | < 10 | CCC(Nc1nc2ccc(Nc3cc(C(F)(F)F)n(C)n3)cc2n1C)c1ccc(Oc2ncc(Cl)cn2)cc1 (stereo not drawn) [Compound 505] |
| 10 to 20 | < 1000 | 10 to 20 | Cn1c(NCc2ccc(Oc3ncc(F)cn3)cc2)nc2ccc(NC3COC3)cc21 [Compound 337] |
| < 10 | < 1000 | > 20 | Cn1c(NCc2ccc(Oc3ccc(Cl)cc3)cn2)nc2ccc(NC3COC3)cc21 [Compound 298] |
| < 10 | < 1000 | > 20 | COc1c(NC(C)c2ccc(Oc3ccc(OC(F)(F)F)cc3)cc2)ccc2[nH]c(N(C)C)nc12 (stereo not drawn) [Compound 191] |
| < 10 | < 1000 | < 10 | CCn1c(NCc2ccc(Oc3ncc(Cl)cn3)cc2F)nc2ccc(Nc3cc(C)[nH]n3)cc21 [Compound 536] |
| < 10 | < 1000 | < 10 | CCn1c(NCc2ccc(Oc3ncc(Cl)cn3)cc2)nc2ccc(Nc3cc(C)[nH]n3)cc21 [Compound 476] |
